Reference: publication PMC9848300, “Discovery of novel enasidenib analogues targeting inhibition of mutant isocitrate dehydrogenase 2 as antileukaemic agents” (Journal of Enzyme Inhibition and Medicinal Chemistry, 2023)
Where two headings read alike, the source gives them in different places.

Legend:
CCRF-CEM = test: NCI 60 antitumor screening (single dose / five doses); type: cell-based; details: Homo sapiens, read-out: Growth inhibition percentage (GI %)
HOP-92 = test: as above; type: cell-based; details: Homo sapiens
SNB-75 = test: as above; type: cell-based; details: Homo sapiens
NCI/ADR-RES = test: as above; type: cell-based; details: Homo sapiens, read-out: Growth inhibition percentage (GI %)
A498 = test: as above; type: cell-based; details: Homo sapiens
SN 12C = test: as above; type: cell-based; details: Homo sapiens, SN12C, read-out: Growth inhibition percentage (GI %)
IDH2^R140Q = molecular target: T1, IDH2^R140Q (Homo sapiens, UniProt P48735, R140Q); test: biochemical
T1 sequence (P48735 40-452 R140Q): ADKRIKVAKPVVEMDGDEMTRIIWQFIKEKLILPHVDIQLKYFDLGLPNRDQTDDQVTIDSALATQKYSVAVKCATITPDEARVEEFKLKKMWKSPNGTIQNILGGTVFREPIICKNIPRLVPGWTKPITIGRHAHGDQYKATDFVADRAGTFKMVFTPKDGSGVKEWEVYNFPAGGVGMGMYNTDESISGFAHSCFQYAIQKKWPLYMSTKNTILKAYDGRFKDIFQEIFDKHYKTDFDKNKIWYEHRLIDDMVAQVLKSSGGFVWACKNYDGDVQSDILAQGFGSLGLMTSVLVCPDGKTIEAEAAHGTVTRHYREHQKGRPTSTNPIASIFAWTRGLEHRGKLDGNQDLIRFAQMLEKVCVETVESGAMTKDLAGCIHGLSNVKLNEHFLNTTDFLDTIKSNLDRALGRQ

[1] = CCRF-CEM (leukaemia), single dose 10 μM
[2] = HOP-92 (non-small cell lung cancer), single dose 10 μM, read-out: Growth inhibition percentage (GI %)
[3] = SNB-75 (CNS cancer), single dose 10 μM, read-out: Growth inhibition percentage (GI %)
[4] = NCI/ADR-RES (ovarian cancer), single dose 10 μM
[5] = A498 (renal cancer), single dose 10 μM, read-out: Growth inhibition percentage (GI %)
[6] = SN 12C (renal cancer), single dose 10 μM
[7] = HOP-92, read-out: Growth inhibition percentage (GI %)
[8] = SNB-75, read-out: Growth inhibition percentage (GI %)
[9] = A498, read-out: Growth inhibition percentage (GI %)

Clc1cccc(/C=N/Nc2nc(N/N=C/c3cccc(Cl)c3Cl)nc(N3CCOCC3)n2)c1Cl [compound 6h, 2,4-Bis[(E)-2-[(2,3-Dichlorophenyl)methylidene]hydrazin-1-yl]-6-(morpholin-4-yl)-1,3,5-triazine]
inhibition at 10 µM (CCRF-CEM; [1]): 16.5%
inhibition at 10 µM (HOP-92; [2]): -5.67%
inhibition at 10 µM (SNB-75; [3]): -19.6%
inhibition at 10 µM (NCI/ADR-RES; [4]): 34.2%
inhibition at 10 µM (A498; [5]): -10.5%
inhibition at 10 µM (SN 12C; [6]): 20.2%

C/C(=N\Nc1nc(N/N=C(\C)c2ccc([N+](=O)[O-])cc2)nc(N2CCOCC2)n1)c1ccc([N+](=O)[O-])cc1 [compound 8a, 2-(Morpholin-4-yl)-4,6-bis[(E)-2-[1–(4-nitrophenyl)ethylidene]hydrazin-1-yl]-1,3,5-triazine]
inhibition at 10 µM (CCRF-CEM; CCRF-CEM): 38.4%
inhibition at 10 µM (HOP-92; [7]): 35.9%
inhibition at 10 µM (SNB-75; [8]): 19.4%
inhibition at 10 µM (NCI/ADR-RES; NCI/ADR-RES): 31.3%
inhibition at 10 µM (A498; [9]): 33.9%
inhibition at 10 µM (SN 12C): -27.4%

O=C1Nc2ccc(Cl)cc2/C1=N\Nc1nc(N/N=C2/C(=O)Nc3ccc(Cl)cc32)nc(N2CCOCC2)n1 [compound 8b, (3E)-5-Chloro-3-[2–(4-{2-[(3E)-5-chloro-2-oxo-2,3-dihydro-1H-indol-3-ylidene]hydrazin-1-yl}6-(morpholin-4-yl)-1,3,5-triazin-2-yl)hydrazin-1-ylidene]-2,3-dihydro-1H-indol-2-one]
inhibition at 10 µM (CCRF-CEM; [1]): 79.8%
inhibition at 10 µM (HOP-92; [2]): 74%
inhibition at 10 µM (SNB-75; [3]): 101%
inhibition at 10 µM (NCI/ADR-RES; [4]): 1.85%
inhibition at 10 µM (A498; [5]): 78.4%
inhibition at 10 µM (SN 12C; [6]): 56.1%

Brc1ccccc1/C=N/Nc1nc(N/N=C/c2ccccc2Br)nc(N2CCOCC2)n1 [compound 6b, 2,4-Bis[(E)-2-[(2-bromophenyl)methylidene]hydrazin-1-yl]-6-(morpholin-4-yl)-1,3,5-triazine]
inhibition at 10 µM (CCRF-CEM; [1]): 19.9%
inhibition at 10 µM (HOP-92; [2]): -12.3%
inhibition at 10 µM (SNB-75; [3]): -31.7%
inhibition at 10 µM (NCI/ADR-RES; [4]): 8.51%
inhibition at 10 µM (A498; [5]): 49.8%
inhibition at 10 µM (SN 12C; [6]): 1.16%

Brc1ccccc1/C=N/Nc1nc(N/N=C/c2ccccc2Br)nc(N2CCCCC2)n1 [compound 7b, 2,4-Bis[(E)-2-[(2-Bromophenyl)methylidene]hydrazin-1-yl]-6-(piperidin-1-yl)-1,3,5-triazine]
inhibition at 10 µM (CCRF-CEM; [1]): 0.06%
inhibition at 10 µM (HOP-92; [2]): -33%
inhibition at 10 µM (SNB-75; [3]): -2.35%
inhibition at 10 µM (NCI/ADR-RES; [4]): -2.41%
inhibition at 10 µM (SN 12C; [6]): 5.69%

O=C(NNc1nc(NNC(=O)c2ccccc2)nc(N2CCOCC2)n1)c1ccccc1 [compound 8d, N'-[4-(morpholin-4-yl)-6-(phenylhydrazido)-1,3,5-triazin-2-yl]benzohydrazide]
inhibition at 10 µM (CCRF-CEM; [1]): -6.05%
inhibition at 10 µM (HOP-92; [2]): -12.8%
inhibition at 10 µM (SNB-75; [3]): 9.11%
inhibition at 10 µM (NCI/ADR-RES; [4]): 1.24%
inhibition at 10 µM (A498; [5]): -11%
inhibition at 10 µM (SN 12C; [6]): -6.53%

C(=N\Nc1nc(N/N=C/c2ccc3c(c2)OCO3)nc(N2CCOCC2)n1)/c1ccc2c(c1)OCO2 [compound 6k, 2,4-Bis[(E)-2-(2H-1,3-Benzodioxol-5-ylmethylidene)hydrazin-1-yl]-6-(morpholin-4-yl)-1,3,5-triazine]
inhibition at 10 µM (CCRF-CEM; [1]): 41%
inhibition at 10 µM (HOP-92; [2]): 8.47%
inhibition at 10 µM (SNB-75; [3]): 13.4%
inhibition at 10 µM (NCI/ADR-RES; [4]): 23.3%
inhibition at 10 µM (SN 12C; [6]): 24.1%

Oc1ccc(/C=N/Nc2nc(N/N=C/c3ccc(O)c(O)c3)nc(N3CCOCC3)n2)cc1O [compound 6j, 4-[(1e)-(2-{4-[(E)-2-[(3,4-Dihydroxyphenyl)methylidene]hydrazin-1-yl]-6-(morpholin-4-yl)-1,3,5-triazin-2-yl}hydrazin-1-ylidene)methyl]benzene-1,2-diol]
inhibition at 10 µM (CCRF-CEM; [1]): -2.09%
inhibition at 10 µM (HOP-92; [2]): -7.35%
inhibition at 10 µM (SNB-75; [3]): -1.54%
inhibition at 10 µM (NCI/ADR-RES; [4]): -5.32%
inhibition at 10 µM (A498; [5]): 2.87%
inhibition at 10 µM (SN 12C; [6]): 0.16%

COC(=O)C(Cc1ccccc1)Nc1nc(NC(Cc2ccccc2)C(=O)OC)nc(N2CCOCC2)n1 (stereo not shown) [compound 8c, Methyl 2-({4-[(1-methoxy-1-oxo-3-phenylpropan-2-yl)amino]-6-(morpholin-4-yl)-1,3,5-triazin-2-yl}amino)-3-phenylpropanoate]
inhibition at 10 µM (CCRF-CEM; [1]): -4.54%
inhibition at 10 µM (HOP-92; [2]): -18.5%
inhibition at 10 µM (SNB-75; [3]): 9.51%
inhibition at 10 µM (NCI/ADR-RES; [4]): -10.6%
inhibition at 10 µM (A498; [5]): -7.4%
inhibition at 10 µM (SN 12C; [6]): -3.62%

O=[N+]([O-])c1cccc(/C=N/Nc2nc(N/N=C/c3cccc([N+](=O)[O-])c3)nc(N3CCOCC3)n2)c1 [compound 6f, 2-(Morpholin-4-yl)-4,6-bis[(E)-2-[(3-nitrophenyl)methylidene]hydrazin-1-yl]-1,3,5-triazine]
inhibition at 10 µM (CCRF-CEM; CCRF-CEM): 58.4%
inhibition at 10 µM (HOP-92; [7]): 14.2%
inhibition at 10 µM (SNB-75; [8]): 11.2%
inhibition at 10 µM (NCI/ADR-RES; NCI/ADR-RES): 30.9%
inhibition at 10 µM (A498; [9]): 13.1%
inhibition at 10 µM (SN 12C): 24.4%

O=[N+]([O-])c1cc(/C=N/Nc2nc(N/N=C/c3ccc(Cl)c([N+](=O)[O-])c3)nc(N3CCCCC3)n2)ccc1Cl [compound 7i, 2,4-Bis[(E)-2-[(4-Chloro-3-nitrophenyl)methylidene]hydrazin-1-yl]-6-(piperidin-1-yl)-1,3,5-triazine]
inhibition at 10 µM (CCRF-CEM; CCRF-CEM): 38.7%
inhibition at 10 µM (HOP-92; [7]): -23.1%
inhibition at 10 µM (SNB-75; [8]): -36.1%
inhibition at 10 µM (NCI/ADR-RES; NCI/ADR-RES): 69.8%
inhibition at 10 µM (A498; [9]): -8.06%
inhibition at 10 µM (SN 12C): 27.7%

Clc1cccc(/C=N/Nc2nc(N/N=C/c3cccc(Cl)c3Cl)nc(N3CCCCC3)n2)c1Cl [compound 7h, 2,4-Bis[(E)-2-[(2,3-Dichlorophenyl)methylidene]hydrazin-1-yl]-6-(piperidin-1-yl)-1,3,5-triazine]
inhibition at 10 µM (CCRF-CEM; [1]): 28.7%
inhibition at 10 µM (HOP-92; [2]): 13.8%
inhibition at 10 µM (SNB-75; [3]): -4.05%
inhibition at 10 µM (NCI/ADR-RES; [4]): 32.6%
inhibition at 10 µM (A498; [5]): 7.46%
inhibition at 10 µM (SN 12C; [6]): 19.3%

O=[N+]([O-])c1cccc(/C=N/Nc2nc(N/N=C/c3cccc([N+](=O)[O-])c3)nc(N3CCCCC3)n2)c1 [compound 7f, 2,4-Bis[(E)-2-[(3-Nitrophenyl)methylidene]hydrazin-1-yl]-6-(piperidin-1-yl)-1,3,5-triazine]
inhibition at 10 µM (CCRF-CEM; CCRF-CEM): 65.1%
inhibition at 10 µM (HOP-92; [7]): 20.9%
inhibition at 10 µM (SNB-75; [8]): -0.71%
inhibition at 10 µM (NCI/ADR-RES; NCI/ADR-RES): 32.8%
inhibition at 10 µM (A498; [9]): 18.7%
inhibition at 10 µM (SN 12C): 31.9%

C(=N\Nc1nc(N/N=C/c2ccc3c(c2)OCO3)nc(N2CCCCC2)n1)/c1ccc2c(c1)OCO2 [compound 7k, 2,4-Bis[(E)-2-(2H-1,3-Benzodioxol-5-ylmethylidene)hydrazin-1-yl]-6-(piperidin-1-yl)-1,3,5-triazine]
inhibition at 10 µM (CCRF-CEM; [1]): 79.6%
inhibition at 10 µM (HOP-92; [2]): 4.01%
inhibition at 10 µM (SNB-75; [3]): -13.1%
inhibition at 10 µM (NCI/ADR-RES; [4]): 14.5%
inhibition at 10 µM (A498; [5]): 48.3%
inhibition at 10 µM (SN 12C; [6]): 20.3%

O=[N+]([O-])c1cc(/C=N/Nc2nc(N/N=C/c3ccc(Cl)c([N+](=O)[O-])c3)nc(N3CCOCC3)n2)ccc1Cl [compound 6i, 2,4-Bis[(E)-2-[(4-Chloro-3-nitrophenyl)methylidene]hydrazin-1-yl]-6-(morpholin-4-yl)-1,3,5-triazine]
inhibition at 10 µM (CCRF-CEM; CCRF-CEM): 12.2%
inhibition at 10 µM (HOP-92; [7]): -20.3%
inhibition at 10 µM (SNB-75; [8]): -7.64%
inhibition at 10 µM (NCI/ADR-RES; NCI/ADR-RES): -0.3%
inhibition at 10 µM (A498; [9]): -10.3%
inhibition at 10 µM (SN 12C): 9.02%

Oc1ccc(/C=N/Nc2nc(N/N=C/c3ccc(O)c(O)c3)nc(N3CCCCC3)n2)cc1O [compound 7j, 4-[(1e)-(2-{4-[(E)-2-[(3,4-Dihydroxyphenyl)methylidene]hydrazin-1-yl]-6-(piperidin-1-yl)-1,3,5-triazin-2-yl}hydrazin-1-ylidene)methyl]benzene-1,2-diol]
inhibition at 10 µM (CCRF-CEM; [1]): 9.46%
inhibition at 10 µM (HOP-92; [2]): -9.47%
inhibition at 10 µM (SNB-75; [3]): -4%
inhibition at 10 µM (NCI/ADR-RES; [4]): -3.16%
inhibition at 10 µM (A498; [5]): -2.84%
inhibition at 10 µM (SN 12C; [6]): 4.32%

CN(C)c1ccc(/C=N/Nc2nc(N/N=C/c3ccc(N(C)C)cc3)nc(N3CCOCC3)n2)cc1 [compound 6g, 4-[(1e)-(2-{4-[(E)-2-{[4-(dimethylamino)phenyl]methylidene}hydrazin-1-yl]-6-(morpholin-4-yl)-1,3,5-triazin-2-yl}hydrazin-1-ylidene)methyl]-N,N-dimethylaniline]
inhibition at 10 µM (CCRF-CEM; [1]): 86.7%
inhibition at 10 µM (HOP-92; [2]): -8.78%
inhibition at 10 µM (SNB-75; [3]): 12.6%
inhibition at 10 µM (NCI/ADR-RES; [4]): 0.17%
inhibition at 10 µM (SN 12C; [6]): 10.8%
IC50 (IDH2^R140Q): 0.336 ± 0.0164 µM
